Entries after “also recorded” stand apart in the source; their conditions may differ.
Assays:
SW480claudin-1 cells [1] = assay: Soft agar colony formation assay; assay type: cell-based
Text: (§1) To this end, a library of molecules was synthesized in order to develop an initial SAR evaluation. The first compounds tested eliminated the acylated (thio) urea as well as the napthyl group and evaluated just the urea/phenyl compounds (Compounds 1-6). The methoxy group of the naphthalene ring system was needed when the benzimidazole group was present (16 vs. Compound 8). […] The result of metabolic stability was expressed as the percentage of drug remaining at each time. […] To further determine the effect of PDS-0330 on p-Src expression and association, cells were treated with Compound 1, 16 and PDS-0330. Expression and association with p-Src was unaffected with Compound 1 (negative control). The specificity of PDS-0330 for CLDN1 was further confirmed by treating SW480^CLDN1, HCT116^CLDN2 (overexpressing another tight junction protein) or normal IEC-6 cells with PDS-0330 (FIG. 12).

[2] = system: SW480claudin-1 cells xenograft tumors; assay: SW480claudin-1 xenograft tumor growth; assay type: in vivo
Method: (A) In-silico 3D-structure of claudin-1, cavities that can be targeted by small molecules were defined using Molegro Virtual Docker. (B) Cell survival assay showing effects of three different inhibitors (I1, I2 and 16). […] (C) Effect of 16 treatment (72 hours) upon resistance to anoikis in claudin-1 overexpressing SW480 cells and claudin-1 deficient HCT116 cells. (D) Effect of 16 treatment on cell invasion in SW480claudin-1 cells. (E) Effect of inhibitor 16 on xenograft tumors. […] Effect on tumor growth was monitored.
Tumor volume and weight were measured.
In vivo validation of the anti-tumorigenic and metastatic effects of 1-6 treatment: (i) Xenograft model. […] These studies are elaborated using claudin-1 positive (HT29, DLD-1, SW620 cells) and negative (HCT116, SW620ShRNA) for similar xenograft tumor growth studies (15,50). Luciferin expressing cells (established in our lab) are used to help examining longitudinal growth of these tumors using live mouse imaging.

SW480claudin-1 cells [3] = assay: Cell invasion assay; assay type: cell-based
Text: (§2) The crystal structure of claudin-1 is unknown. Therefore, an in-silico protein folding program, YASARA, was used to identify an effective claudin-1 inhibitor. The resultant 3D-structure was then modeled using Molegro Virtual Docker (MVD) software program. These in-silico analyses identified putative cavities in the claudin-1 protein that can be targeted by small molecule inhibitors. Next, a 100K library of small molecules was screened in silico using the MVD. The top 10 inhibitors that bound to the Site #3 (targeting near c-terminal domain; the most accessible pocket; FIG. 2A) with the best binding energies were selected as hits and used for further testing. Screening of these inhibitors named Inihibitor-1 (1-1) to Inhibitor-10 (I-10) was done using SW480claudin-1, SW620 and control cells. Claudin-1 deficient HCT116 cells (WT-APC) or SW620shRNAcld-1 were used as negative controls. Resistance to anoikis and cell invasion was used as biological end-points in testing these inhibitors. […] 16 has the following structure:
To this end, a library of molecules was synthesized in order to develop an initial SAR evaluation. The first compounds tested eliminated the acylated (thio) urea as well as the napthyl group and evaluated just the urea/phenyl compounds (Compounds 1-6). […] The result of metabolic stability was expressed as the percentage of drug remaining at each time. […]

SW480claudin-1 cells [4] = assay: Resistance to anoikis in claudin-1 overexpressing cells; assay type: cell-based; conditions: for effect on resistance to anoikis: 72 h treatment; for activity: FIG. 9, printed only as 'activity', kind of value not named
Text: as §2, §1

[5] = system: DLD-1 chemoresistant cells; assay: p-Src and c-PARP expression in 5FU resistant cells; assay type: cell-based
Method: (§3) Furthermore, DLD-1 chemoresistant cells were treated with PDS-0330 and I-6. […] Based on the in vitro activity and metabolic stability, PDS-0330, and any potential new analogs will be evaluated in animal models to determine the pharmacokinetic properties and biodistribution as described in preliminary data.

[6] = system: p-Src and c-PARP in SW480claudin-1 overexpressing cells; assay: Expression of p-Src, Src and c-PARP; assay type: cell-based
Text: as §1, §3

[7] = target: T1, claudin-1/Src complex in SW480claudin-1 cells (Homo sapiens, UniProt O95832); assay: Claudin-1/Src association (proximity ligation assay, Co-IP); assay type: cell-based; conditions: PLA, Co-IP or immuno-precipitation
T1 construct: claudin-1 was expressed in a non-metastatic CRC cell line, SW480 cells; expressed in transfected cells; host or cells: SW480 colorectal cancer cells expressing claudin-1 (SW480claudin-1)
T1 sequence (O95832 1-211): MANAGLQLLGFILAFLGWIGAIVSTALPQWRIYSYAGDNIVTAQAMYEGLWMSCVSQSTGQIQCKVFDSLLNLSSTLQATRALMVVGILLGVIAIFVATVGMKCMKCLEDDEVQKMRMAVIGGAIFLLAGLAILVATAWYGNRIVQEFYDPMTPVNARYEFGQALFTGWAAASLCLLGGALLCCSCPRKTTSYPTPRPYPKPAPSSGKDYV
Text: The CSC cells contribute to the generation of metastasis (16-19), and key CSC characteristics are highly relevant to metastasis, including invasive motility, and, resistance to apoptosis (20,21). […] Considering that chemoresistance is central to the CRC progression and metastasis, we further tested if adjuvant use of 16 with 5FU can have significant bearing upon these traits. Colon cancer cells were subjected to exogenous administration of 16 alone, or in combination with the 5-FU, the conventional anti-CRC drug. […] To further determine the mechanistic details the effect of 16 on association of claudin-1 and Src, SW480claudin-1 cells were treated with 16 or the vehicle and resultant cell lysate was subjected to Proximity ligation assay (PLA) or Co—IP.

[8] = Phase I metabolism in human liver microsomes; assay type: in vitro ADME; conditions: 60 minutes, compared to 16
Text: The result of the metabolic stability study was expressed as the % drug conc. remaining.
as §1
Metabolic stability and reaction phenotyping: The in vitro metabolic stability of studies was determined using mice and human liver microsomes and S9 fractions (XenoTech, LLC, Lenexa, KS, USA) following standard protocols (33, 35, 36). […] Drug concentrations were determined using LC-MS/MS. […] UGTs are analyzed in Corning® Supersomes™ if incubation of HLMs with UDPGA also results in metabolite formation.

O=C(NC(=S)Nc1ccc(-c2nc3ccccc3o2)cc1)c1ccc2ccccc2c1 [PDS-0330]
effect on soft agar colony formation (SW480claudin-1 cells [1]): significantly inhibited | xenograft tumor growth ([2]; PDS-0330 ip, 2.5, 5 mg/kg): decrease in xenograft tumor growth | effect on cell invasion (SW480claudin-1 cells [3]): significantly inhibited | activity improvement of PDS-0330 over 16 (SW480claudin-1 cells [4]; 8.4 μM vs. 28.4 μM): ~3 fold | effect on resistance to anoikis (SW480claudin-1 cells [4]): most potent compound; also recorded: significantly inhibited | activity (SW480claudin-1 cells [4]): 8.4 µM | apoptosis (c-PARP) [5]: increase in apoptosis (c-PARP) | p-Src expression [5]: decrease in p-Src expression | apoptosis (c-PARP) [6]: most potent effects | p-Src expression [6]: most potent effects | claudin-1/Src (p-Src) association [7]: most potent effects; also recorded: inhibits Src association | metabolic stability [8]: metabolically stable over 60 minutes

COc1cc2ccccc2cc1C(=O)NC(=S)Nc1ccc(-c2nc3ccccc3[nH]2)cc1 [Compound 16]
growth of xenograft tumors ([2]; 16 i.p. 10 mg/kg): significantly inhibited | toxic effects on xenograft mice ([2]; 16 i.p. 10 mg/kg): did not observe any toxic effects | effect on cell invasion (SW480claudin-1 cells [3]): most effective | effect on resistance to anoikis (SW480claudin-1 cells [4]): most effective | activity (SW480claudin-1 cells [4]): 28.4 µM | apoptosis (c-PARP) [5]: increase in apoptosis (c-PARP) | p-Src expression [5]: decrease in p-Src expression | apoptosis (c-PARP) [6]: increased apoptosis (c-PARP) | p-Src expression [6]: reduced p-Src expression | claudin-1/Src (p-Src) association [7]: markedly suppressed; also recorded: reduced
